Measured values published in patent publication US20210085699A1, “COMBINATION THERAPIES FOR TREATING CANCERS” (priority 2018, published 2021).

Experiments:
MEC1 cells [1] = test: MEC1 xenograft in NRG mice, tumor burden by human CD19+ cells (flow cytometry); type: in vivo
Procedure: To test that hypothesis, the two cell lines were tested for 2DG sensitivity in vivo: immunodeficient NOD.Cg-Rag1^tm1MomIl2rg^tm1Wjl/SzJ (NRG™) mice were xenografted with either MEC1 or CCRF-SB cells, and the mice were then treated with 200 μL of 600 mM 2DG or glucose I.P. three times per week for two weeks. Both MEC1 and CCRF-SB cells migrate to the spleen and bone marrow, and since these mice […] CD19+ B-cells, the tumor burden can be measured terminally in these organs by anti-human CD19 staining via flow cytometry after euthanasia at the end of the treatment period.
Because DIDS was effective in reducing numbers of MEC1 B-cells ex vivo, its effectiveness was tested in vivo. […] MEC1 cells were xenografted into immunodeficient NRG™ mice for two weeks, and mice were then treated either with DIDS at 50 mg/kg or with a 0.1 M potassium bicarbonate/PBS vehicle, once per week for an additional two weeks. NRG™ mice were used because they were deficient in CD19 cells, allowing quantification of MEC1 B-cells by staining spleen cells for human CD19, as the spleen is a homing organ for MEC1 B-cells, all of which are positive for CD19.
Mice were treated I.P. three times weekly for two weeks. 1) mice were dosed I.P. with 10 mg/kg DIDS, a fifth of the dose required to elicit an effect in vivo (FIG. 4D); 2) mice were treated I.P. with 220 mg/kg of 2DG or glucose; a third of the dose of 2DG required for an effect (FIG. 3C); 3) mice were treated with both DIDS and 2DG, at the same doses used in the first two groups; 4) as a positive control, mice were treated with fludarabine, a compound frequently used to treat CLL, at 35 mg/kg, a dose commonly used to elicit an effect; and 5) as a negative control, mice were treated with vehicle consisting of glucose in PBS (41). Following the 2-week treatment period, bone marrow and spleens were assessed for tumor burden, by determining the percentages of human CD19-positive cells via flow cytometry (FIG. 5C).
(§1) Human cancer cell lines were xenografted into NRG mice in the following way: Cells grown in flasks were given fresh media the night before xenograftment and seeded at 10^6 cells per mL. The next day, the cells were washed twice with DPBS without calcium or magnesium and resuspended to 1-2×10^8 cells per mL of DPBS at room temperature and immediately injected via tail vein at 100 μL per mouse. The cells were given 7-10 days to fully xenograft, after which tumor load in the blood was assessed via flow cytometry (FACSCaliber II) for human CD19+ cells (Antibody cat no. 555413, BD Parmingen). Mice with similar tumor loads were assigned to different treatment groups to decrease bias and ensure more even tumor load across treatments. Mice were treated as described in the Results section for two weeks unless otherwise indicated. Upon euthanasia, the spleen and the bone marrow were harvested and stained for human CD19, and the cells were measured by flow cytometry on the FACSCaliber II. Analysis of the flow data was done by Flowjo version 8.8.7 (BD Pharmingen).
Xenografts were done as follows: NOD. Rag1−/− IL-2rg−/− (NRG) mice obtained from the Jackson Laboratory were xenografted for one to two weeks with Non Hogdkin's Leukemia CCRFSB, Chronic lymphocytic leukemia MEC1 cells or MEC1 cells carrying the luciferase gene (MEC1_LUC). Mice were then randomly assigned to treatment or vehicle cohort, and treated for two weeks.

MEC1 cells [2] = test: Ex vivo growth/survival of MEC1 cells; type: cell-based, human
[3] = test system: AID knock-out MEC1 (AKO) cells; test: Ex vivo growth of AID knock-out MEC1 (AKO) cells; type: cell-based, human; details: DIDS vs vehicle
Procedure: (§2) Theoretically, this would result in a truncated, non-functional AID, which was termed AID knock-out MEC1 (AKO) cells. To test the dependence of DIDS on AID, AKO cells were treated with DIDS and compared their growth with that of parental MEC1 cells. […] To test whether AID sufficiency was required for DIDS efficacy in vivo, AKO and parental cells were xenografted in NRG™ mice, and mice were treated with 50 mg/kg of DIDS for two weeks. […] Thus, the therapeutic effect of DIDS in MEC1 xenografts depended on AID.
AID knock out (AKO) MEC1 cell lines were developed by targeting Exon 2 of AID with the following guide RNAs: CTTGATGAACCGGAGGAAG (SEQ ID NO: 1), GTCCGCTGGGCTAAGGGTC (SEQ ID NO: 2), GTGCTACATCCTTTTCAC (SEQ ID NO: 3). These guides were cloned into the Cas9-EGFP vector, pX330 (Addgene, Cat. no. 66582). These vectors were nucleofected into MEC1 cells using Amaxa Cell Line Nucleofector Kit V using program X-001, and according to manufacturer's instructions (Lonza, Cat. no. VACA-1003). Nucleofected cells were sorted for GFP positivity and cloned by limited dilution to generate AKO cell lines. Two independent AKO cell lines (14-1 and 14-3) were confirmed for AID nullizygosity using both genomic and transcript PCRs.

[4] = test system: AID knock-out MEC1 (AKO) cells; test: AKO cell xenograft in NRG mice treated with DIDS; type: in vivo, human; details: DIDS 50 mg/kg for two weeks
Procedure: as §2
as §1, with “Mice with similar tumor loads were assigned to different treatment groups to decrease bias and ensure more even tumor load across treatments. Mice were treated as described in the Results section for two weeks unless otherwise indicated.” left out, “Analysis of the flow data was done by Flowjo version 8.8.7 (BD Pharmingen).” left out

[5] = test system: splenocytes, live white blood cells (CD45+ Ter119-PI−); test: In vivo DIDS treatment of AID-null mice followed by ex vivo ionizing radiation of splenocytes; set-up: species or system mouse
Procedure: Whether DIDS could block repair of AID-independent double-strand breaks (frank or single-strand staggered double-strand breaks) in vivo was determined. A common way to generate double-strand breaks is via ionizing radiation (1, 38, 39). For this, AID-null mice were treated with different concentrations of DIDS (0, 5, or 10 mg/kg) for eight hours, and then harvested splenocytes and treated them with different doses of IR (0, 1, 5, 10 Gy). Eighteen hours after IR, the numbers of live white blood cells (CD45+ Ter119-PI−) were measured by flow cytometry.

[6] = test system: AID-positive neoplastic cell lines; details: tissue culture; reference (17); cited from earlier work
[7] = test system: human CLL cells from patients; details: patient cells ex vivo; reference (17); cited from earlier work

Structure (SMILES): O=S(=O)(O)c1cc(N=C=S)ccc1/C=C/c1ccc(N=C=S)cc1S(=O)(=O)O [DIDS, 4,4′-Diisothiocyano-2,2′-stilbenedisulfonic acid]
- mice showing significant (p=0.001) reduction in number of MEC1 cells in the spleen (MEC1 cells [1]; DIDS 50 mg/kg once per week for two weeks, vs vehicle): 10/11
- tumor burden in vivo (luciferase imaging, flow cytometry of bone marrow and spleen) (MEC1 cells [1]; FIG. 10 legend, MEC1 or MEC1 LUC, DIDS 50 mg/kg for two weeks): a high dose of DIDS is required to reduce tumor burden in vivo
- cytotoxic effect on MEC1 B-cells (MEC1 cells [2]; DIDS 0.05 mM, 5 days, 2×10^5 cells): Cytotoxic effects of DIDS on MEC1 B-cells were seen as early as 5 days
- cytotoxic effect on MEC1 B-cells (MEC1 cells [2]; DIDS 0.1 and 0.2 mM, after 5 days): significant effect was observed
- cell numbers (MEC1 cells [2]; DIDS alone, titrated, day 2): reduction of cell numbers as the concentration of DIDS was increased
- growth rate of AKO cells [3]: grew at a similar rate regardless of whether the cells were treated with vehicle or DIDS
- spleen weights, AKO vs parental MEC1 [4]: AKO cells were more resistant to DIDS
- tumor burden by percentages of human CD19 cells, AKO vs parental MEC1 [4]: AKO cells were more resistant to DIDS
- survival of cells after IR ([5]; DIDS 0, 5 or 10 mg/kg for eight hours in AID-null mice, IR 0, 1, 5, 10 Gy ex vivo, eighteen hours after IR): in the presence of DIDS, the effect is significantly greater
- cell ablation at 10 Gy, normalized to 0 mg/Kg DIDS ([5]; IR 10 Gy, DIDS 5 or 10 mg/kg): even a tenth of the dose of DIDS can synergistically enhance the severity of cell ablation
- targeting of AID-positive neoplastic cell lines [6]: could specifically target AID-positive neoplastic cell lines in tissue culture
- targeting of AID-positive vs AID-negative human CLL cells [7]: targeted AID-positive, but not AID-negative, human CLL cells
